Like-named read-outs stand apart in the source and are kept apart here.
Experiments:
[1] = precision cut liver slice assay (metabolic stability, N-methylation); type: in vitro ADME; conditions: for metabolic N-methylation (N-methyl metabolites): in these assays: precision cut liver slice assay and pharmacokinetic studies in primates
Protocol: Metabolic stability of the compounds described above is evaluated in vitro in a precision cut liver slice assay and in vivo in pharmacokinetic studies in primates. The precision cut liver slice assay is a well recognized, validated in vitro model to study xenobiotic metabolism in animal species and humans. (See Ekins, S. “Past, present, and future applications of precision-cut liver slices for in vitro xenobiotic metabolism.” (Department of Medicine and Therapeutics, University of Aberdeen, UK.) Drug-Metab-Rev. (November, 1996) Vol. 28, No. 4: pp. 591-623). […] The assay provides data on the biotransformations taking place within intact hepatocytes of the species of interest. Thus the full compliment of phase I and phase II metabolic enzymes are available to metabolize the drug as is the case in vivo.

alpha-2 adrenoceptors = experiment: alpha-2 adrenergic activity and selectivity (receptor binding affinities and in vitro functional potencies); type: biochemical
Protocol: (§1) The pharmacological activity and selectivity of these compounds can be determined using published test procedures. […] (See, e.g., The Alpha-2 Adrenergic Receptors, L. E. Limbird, ed., Humana Press, Clifton, N.J.) The following in vivo assays are typically conducted in rodents or other species. Central nervous system activity is determined by measuring locomotor activity as an index of sedation. (See, e.g., Spyraki, C. & H. Fibiger, “Clonidine-induced Sedation in Rats: Evidence for Mediation by Postsynaptic Alpha-2 Adrenoreceptors”, Journal of Neural Transmission, Vol. 54 (1982), pp. 153-163). Nasal decongestant activity is measured using rhinomanometry as an estimate of nasal airway resistance. […] Antiglaucoma activity is determined by measuring intraocular pressure. […] Antidiarrheal activity is determined by measuring the ability of the compounds to inhibit prostaglandin-induced diarrhea. […] Efficacy in treating irritable bowel syndrome is determined by measuring the ability of compounds to reduce the stress-induced increase in fecal output. […] Antiasthma activity is determined by measuring the effect of the compound on bronchoconstriction associated with pulmonary challenges such as inhaled antigens. […] Activity in cough is determined by measuring the number and latency of the cough response to respiratory challenges such as inhaled citric acid. […]

central nervous system = central nervous system activity (locomotor activity as an index of sedation); set-up: species or system rodents; conditions: in vivo
Protocol: as §1

[2] = pharmacokinetic studies in primates: parent and N-methyl metabolite in urine after oral dosing; type: in vivo, cynomolgus monkeys
Protocol: For the pharmacokinetic studies, the compounds are administered orally to cynomolgus monkeys and measurements of administered benzimidazole compounds and corresponding N-methyl metabolites are made using 100 μL aliquots of urine collected over various time-periods post-dose. Typically, a chemical homolog or stable-isotope-labeled internal standard is added to each sample and then diluted 100× in water. Ten μL of prepared sample is then analyzed by gradient HPLC, with tandem mass spectrometry detection. Single ion reaction monitoring schemes are employed to selectively detect the test compound, its N-methyl metabolite (if present), and the internal standard.

| Structure (SMILES) | metabolic N-methylation (N-methyl metabolites) [1] | metabolism / methyl metabolite formation ([1]; precision cut liver slice assay) | alpha-2 adrenergic activity (pharmacological profile) (alpha-2 adrenoceptors) | CNS activity (central nervous system) | metabolism / methyl metabolite formation [1] | N-methylation in primates [2] |
| --- | --- | --- | --- | --- | --- | --- |
| Cc1c(NC2=NCCN2)ccc2[nH]cnc12 [5-(2-Imidazolinylamino)-4-methylbenzimidazole] | N-methyl metabolites were found | rapidly metabolized | very potent and selective alpha-2 adrenergic agonists | very low CNS activity | – | – |
| Cc1c(N=C2NCCN2)cc(C#N)c2[nH]cnc12 [Example 1, 7-Cyano-5-(2-imidazolinylamino)-4-methylbenzimidazole] | – | – | – | very low CNS activity | no evidence of the methyl metabolite | – |
| CCc1c(NC2=NCCN2)ccc2[nH]cnc12 [4-ethyl-5-(2-imidazolinylamino)benzimidazole] | N-methyl metabolites were found | – | selective alpha-2 adrenergic agonist | – | – | rapidly and extensively N-methylated |

Reference: patent US6486190B1, “5-(2-imidazolinylamino)-benzimidazole derivatives, their preparation and their use as α-adrenoceptor agonists with improved metabolic stability” (The Procter & Gamble Company, priority 1997, dated 2002)
